Source: US20180244653A1, “SELECTIVE ALPHA-7 NICOTINIC RECEPTOR AGONISTS AND METHODS FOR MAKING AND USING THEM” (THE REGENTS OF THE UNIVERSITY OF CALIFORNIA, priority 2015, published 2018)
Where “and” joins values, the source holds several entries; their conditions need not be identical. Equal entries are not always repeated. Entries after “also recorded” stand apart in the source; their conditions may differ. Where two headings read alike, the source gives them in different places.

What was measured:
[1] = target: α7/5HT3A chimera receptor (hα7/m5HT3A), used for α7-nAChRs (UniProt P23979+P36544, M226I/T225I); assay: Intact cell competitive radioligand binding assay ([3H]-(±)-epibatidine, SPA), LGIC-CNiFERs; details: read-out: Kd ± SD, α7-nAChRs; >10 = did not pass initial screen at 10 μM
α7-nAChRs = target: T1, α7-nAChRs (Homo sapiens, UniProt P36544); assay: FRET functional assay (agonist/antagonist) using LGIC-CNiFERs; format: cell-based; details: for EC50: in presence of 10 μM PNU-120596, * partial agonist, read-out: Agonist EC50 ± SD, α7; for Functional properties at α7-nAChRs (agonist / antagonist): functional screening and characterization
T1 construct: expressed in transfected cells; host or cells: HEKtsA201 cells co-expressing TN-XXL
Procedure: (§1) Initially, the agonist properties of tested compounds were assessed directly. […] All α7-nAChR functional assays were performed in the presence of PNU-120596, an α7-nAChR positive allosteric modulator (PAM), to increase signal and delay the sensitization state of α7-nAChRs enabling the measurement of more prolonged FRET signals.^29 Compounds having agonist responses of >0.20 were determined for EC50, and compounds having inhibition fraction of >0.50 were determined for KA.^25 EC50>13.3 μM and KA>10 μM which are a screening concentration for agonist and antagonist, respectively were reported compounds not taken for further in the screening of receptor occupation and responses.
(§2) Agonist and antagonist elicited responses were characterized using the above CNiFER cell expressing Cys-loop ligand-gated ion channel (LGIC) receptors. […] A 96-well black, clear-bottom microplate (Greiner bio-one, Germany) was coated with poly-D-lysine (Sigma-Aldrich, St. Louis, Mo.) 50 μL/well for 30 min and washed out with Phosphate-Buffered Saline (PBS) (Corning, Cellgro, Manassas, Va.) before plating the cells. After plating and incubation at 37° C. for 1 day, the media was replaced with 100 μL of artificial cerebrospinal fluid (aCSF: 121 mM NaCl, 5 mM KCl, 26 mM NaHCO3, 1.2 mM NaH2PO4H2O, 10 mM glucose, 2.4 mM CaCl2, 1.3 mM MgSO4, 5 mM HEPES, pH 7.4) for 4032 and 5HT3A receptors, whereas 10 μM PNU-120596 (Tocris Bioscience, Bristol, UK) in aCSF with 30 min incubation at 37° C. was used for α7-nAChR. The tested compounds were prepared in aCSF for all receptors except α7-nAChR, where 10 μM PNU-120596, a positive allosteric modulator (PAM) was used. The prepared compounds were added in a separate 96-well polypropylene plate (Costar, Corning, N.Y.). Experiments were conducted at 37° C. using 436-nm excitation. Emitted light was collected at 485 nm and 528 nm. Basal fluorescence was recorded for 30 s, followed by addition of 50 μL of ligand (first addition). Measurements were made at 3.84 s intervals for 2 min to measure the agonistic effect. […] Agonist and antagonist properties were sequentially screened at the final concentration of 13.3 and 10 μM, respectively, which differed from the screening concentration from intact cell binding assay (10 μM).

5HT3A receptors = target: T2, 5HT3A receptors (Mus musculus, UniProt P23979); assay: as above; format: cell-based; details: for Functional properties at 5HT3A receptors (agonist / antagonist, type): functional screening and characterization
T2 construct: expressed in transfected cells; host or cells: HEK293 cells co-expressing TN-XXL
T2 sequence (P23979 24-489): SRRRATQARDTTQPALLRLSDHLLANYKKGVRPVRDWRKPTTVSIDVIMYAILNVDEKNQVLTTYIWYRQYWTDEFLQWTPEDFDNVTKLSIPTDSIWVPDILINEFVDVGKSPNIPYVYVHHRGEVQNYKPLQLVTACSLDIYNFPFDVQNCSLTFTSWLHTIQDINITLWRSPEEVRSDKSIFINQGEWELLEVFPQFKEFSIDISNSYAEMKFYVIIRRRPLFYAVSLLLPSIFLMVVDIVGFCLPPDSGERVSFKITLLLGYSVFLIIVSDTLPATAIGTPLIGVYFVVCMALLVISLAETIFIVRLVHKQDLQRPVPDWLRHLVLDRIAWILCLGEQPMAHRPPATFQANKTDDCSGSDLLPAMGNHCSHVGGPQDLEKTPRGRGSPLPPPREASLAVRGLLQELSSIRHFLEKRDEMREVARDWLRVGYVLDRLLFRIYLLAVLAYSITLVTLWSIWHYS
Procedure: as §1, §2

α4β2-nAChRs = target: T3, α4β2-nAChRs (Homo sapiens, UniProt P17787+P43681); assay: as above; format: cell-based; details: for Functional properties at α4β2-nAChRs (agonist / antagonist, type): functional screening and characterization
T3 construct: expressed in transfected cells; host or cells: HEKtsA201 cells co-expressing TN-XXL
Procedure: as §1, §2

[2] = >10 = did not pass initial screen
[3] = read-out: Antagonist KA ± SD, α4β2
[4] = competitive antagonist (^C), >10 = did not pass initial screen, vs 5-HT, read-out: Antagonist KA ± SD, 5HT3A
[5] = read-out: Agonist EC50 ± SD, 5HT3A
[6] = competitive antagonist (^C), >10 = did not pass initial screen, vs (±)-epibatidine, read-out: Antagonist KA ± SD, α4β2
[7] = * partial agonist, >10 = did not pass initial screen, read-out: Agonist EC50 ± SD, 5HT3A
[8] = competitive antagonist (^C), >10 = did not pass initial screen, vs (±)-epibatidine, read-out: Antagonist KA ± SD, α7
[9] = non-competitive antagonist (^NC), read-out: Antagonist KA ± SD, α7, non-competitive
[10] = Antagonist KA ± SD, α4β2, competitive antagonist (^C), >10 = did not pass initial screen, vs (±)-epibatidine
[11] = non-competitive antagonist (^NC)

Structure (SMILES)	EC50 (α7-nAChRs; [2])	Functional properties at 5HT3A receptors (agonist / antagonist, type) (5HT3A receptors)	Kd (α4β2-nAChRs; [3]) [µM]	Kd (5HT3A receptors; [4]) [µM]	EC50 (5HT3A receptors; [5]) [µM]	other results
c1cc2cc(-c3cn(CCCCN4CCCCC4)nn3)ccc2[nH]1 [IND3, 5-(1-(4-(Piperidin-1-yl)butyl)-1H-1,2,3-triazol-4-yl)-1H-indole]	0.91 µM					Kd [1]: 13.8 µM
c1cc2cc(-c3cn(CCCCN4CCOCC4)nn3)ccc2[nH]1 [IND6, 5-(1-(4-(Morpholin-4-yl)butyl)-1H-1,2,3-triazol-4-yl)-1H-indole]	12.2 µM					
c1cc2cc(-c3cn(CCN4CCNCC4)nn3)ccc2[nH]1 [IND9, 5-(1-(2-(Piperazin-1-yl)ethyl)-1H-1,2,3-triazol-4-yl)-1H-indole]		mix-competitive antagonist				
c1cc2cc(-c3cn(C4CCCNC4)nn3)ccc2[nH]1 (stereo not shown) [IND10, 5-(1-(Piperidin-3-yl)-1H-1,2,3-triazol-4-yl)-1H-indole]	0.66 µM	mix-competitive antagonist				
c1cc2cc(-c3cn(CCN4CCCCCC4)nn3)ccc2[nH]1 [IND14, 5-(1-(2-(Azepan-1-yl)ethyl)-1H-1,2,3-triazol-4-yl)-1H-indole]	0.78 µM	competitive antagonism				
c1cc2c(cc1-c1cn(CCN3CCCCC3)nn1)OCO2 [PPRD1, 1-(2-(4-(Benzo-1,3-dioxol-5-yl)-1,2,3-triazol-1-yl)ethyl)piperidine]	7.4 ± 0.7 µM		> 10	> 10	> 10	
Nc1ccc(-c2cn(CCN3CCCCC3)nn2)cc1 [PPRD2, 1-(2-(4-Aminophenyl-1,2,3-triazol-1-yl)ethyl)piperidine]	0.38 µM			>10		Kd (α4β2-nAChRs; [6]): >10 µM; EC50 (5HT3A receptors; [7]): > 10 µM
COc1ccc(-c2cn(CCN3CCCCC3)nn2)cc1 [PPRD3, 1-(2-(4-(4-Methoxyphenyl)-1,2,3-triazol-1-yl)ethyl)piperidine]	15 µM		> 10	> 10	> 10	Functional properties at α7-nAChRs (agonist / antagonist) (α7-nAChRs): partial agonists
Cc1ccc(-c2cn(CCN3CCCCC3)nn2)cc1 [PPRD4, 1-(2-(4-Tolyl-1,2,3-triazol-1-yl)ethyl)piperidine]	3.1 ± 0.8 µM		> 10	> 10	> 10	
COc1ccc2cc(-c3cn(CCN4CCCCC4)nn3)ccc2c1 [PPRD6, 1-(2-(4-(6-Methoxynaphthalen-2-yl)-1H-1,2,3-triazol-1-yl)ethyl)piperidine]	> 10 µM		> 10	> 10	> 10	
Nc1ccc(-c2cn(CCN3CCCCC3)nn2)cc1 [PPRD8, 1-(2-(4-Aminophenyl-1,2,3-triazol-1-yl)ethyl)piperidine]	2.9 µM	competitive antagonist		39		Kd (α4β2-nAChRs; [6]): >10 µM
Nc1ncnc2c1ncn2Cc1cn(CCN2CCCCC2)nn1 [PPRD10, 9-((1-(2-(Piperidin-1-yl)ethyl)-1,2,3-triazol-4-yl)methyl)-purin-6-amine]	> 10 µM		> 10	> 10	> 10	Kd (α7-nAChRs; [8]): 11.6 µM; Kd (α7-nAChRs; [9]): 18.9 µM
COC(=O)c1ccc2[nH]cc(-c3cn(CCN4CCCCC4)nn3)c2c1 [PPRD11, Methyl 3-(1-(2-(piperidin-1-yl)ethyl)-1H-1,2,3-triazol-4-yl)-1H-indole-5-carboxylate]			6.5 ± 1.7	> 10	> 10	Functional properties at α4β2-nAChRs (agonist / antagonist, type) (α4β2-nAChRs): α4β2-nAChR antagonists; also recorded: competitive antagonist; Kd (α7-nAChRs; [8]): 6.6 ± 2.2 µM; Functional properties at α7-nAChRs (agonist / antagonist) (α7-nAChRs): weak and non-selective α7-nAChR antagonists; Kd (α7-nAChRs; [9]): 6.6 ± 1.7 µM
Clc1ccc(-c2cn(CCN3CCCCC3)nn2)cc1 [PPRD13, 1-(2-(4-(4-Chlorophenyl)-1,2,3-triazol-1-yl)ethyl)piperidine]	17.6 ± 4.6 µM		> 10	> 10	> 10	Functional properties at α7-nAChRs (agonist / antagonist) (α7-nAChRs): partial agonists
COc1ccc(-c2cn(C3CN4CCC3CC4)nn2)cc1 (stereo not shown) [QND3, 3-(4-(4-Methoxyphenyl)-1,2,3-triazol-1-yl)quinuclidine]	0.1 µM	5HT3A receptor agonist properties				Kd (α4β2-nAChRs; [10]): > 10 µM; EC50 (5HT3A receptors): 5.7 ± 1.7 µM
Cc1ccc(-c2cn(C3CN4CCC3CC4)nn2)cc1 (stereo not shown) [QND4, 3-(4-Tolyl-1,2,3-triazol-1-yl)quinuclidine]	0.2 µM	antagonists and 5HT3A antagonist properties and mix-competitive antagonist				Kd (α4β2-nAChRs; [6]): >10 µM; Antagonist KA ± SD, 5HT3A (5HT3A receptors; competitive antagonist (^C), >10 = did not pass initial screen, vs 5-HT): 0.50 ± 0.27^C, μM; Antagonist KA ± SD, 5HT3A, non-competitive (5HT3A receptors; [11]): 0.53 ± 0.18^NC μM
O=Cc1c[nH]c2ccc(-c3cn(C4CN5CCC4CC5)nn3)cc12 (stereo not shown) [QND5, 5-(1-(Quinuclidin-3-yl)-1,2,3-triazol-4-yl)-indole-3-carbaldehyde]	0.27 µM				0.16 ± 0.04	Kd (α4β2-nAChRs; [10]): > 10 µM
c1ccc(-c2ccc(-c3cn(C4CN5CCC4CC5)nn3)cc2)cc1 (stereo not shown) [QND7, 3-(4-(Biphenyl-4-yl)-1,2,3-triazol-1-yl)quinuclidine]				> 10	> 10	Kd (α4β2-nAChRs; [10]): > 10 µM; Kd (α7-nAChRs; Antagonist KA ± SD, α7, competitive antagonist (^C), >10 = did not pass initial screen, vs (±)-epibatidine): 6.7 ± 2.5 µM; Functional properties at α7-nAChRs (agonist / antagonist) (α7-nAChRs): antagonistic properties; also recorded: weak α7-nAChR antagonist; Kd (α7-nAChRs; [9]): 26 ± 10 µM
Nc1ncnc2c1ncn2Cc1cn(C2CN3CCC2CC3)nn1 (stereo not shown) [QND10, 9-((1-(Quinuclidin-3-yl)-1,2,3-triazol-4-yl)methyl)-purin-6-amine]	29.5 µM and 30 µM			> 10	> 10	Kd (α4β2-nAChRs; [10]): > 10 µM
COC(=O)c1ccc2[nH]cc(-c3cn(C4CN5CCC4CC5)nn3)c2c1 (stereo not shown) [QND11, Methyl 3-(1-(quinuclidin-3-yl)-1,2,3-triazol-4-yl)-indole-5-carboxylate]	1.61 ± 0.36 µM	antagonists; also recorded: non-competitive antagonist				Kd (α4β2-nAChRs; [10]): 9.3 ± 4.3 µM; Functional properties at α4β2-nAChRs (agonist / antagonist, type) (α4β2-nAChRs): competitive antagonism; Kd (α4β2-nAChRs; read-out: Antagonist KA ± SD, α4β2, non-competitive): 37 ± 22 µM; Kd (5HT3A receptors; non-competitive antagonist (^NC), read-out: Antagonist KA ± SD, 5HT3A, non-competitive): 0.08 ± 0.01 µM
Clc1ccc(-c2cn(C3CN4CCC3CC4)nn2)cc1 (stereo not shown) [QND13, 3-(4-chlorophenyl-1,2,3-triazol-1-yl)quinuclidine]	1.01 µM	5HT3A receptor agonist properties				Antagonist KA ± SD, α4β2 (α4β2-nAChRs; competitive antagonist (^C), >10 = did not pass initial screen, vs (±)-epibatidine): 11.2 ± 2.6^C, μM; Functional properties at α4β2-nAChRs (agonist / antagonist, type) (α4β2-nAChRs): mix-competitive antagonist; Antagonist KA ± SD, α4β2, non-competitive (α4β2-nAChRs; [11]): 23 ± 6^NC μM; EC50 (5HT3A receptors; [7]): 4.9 ± 1.2 µM
